Data: ChEMBL document CHEMBL1201862, “PubChem BioAssay data set” (2004)
Activity calls are given as the source filed them.

Legend:
HEK293 [1] = assay: cells; conditions: Homo sapiens
HEK293 [2] = assay: cells; conditions: Homo sapiens; remark: listed apart in the source
[3] = biological target: T1, Voltage-gated N-type calcium channel alpha-1B subunit/Amyloid beta A4 precursor protein-binding family A member 1 (Homo sapiens, UniProt Q00975+Q02410); type: protein assay
[4] = biological target: T1, Voltage-gated N-type calcium channel alpha-1B subunit/Amyloid beta A4 precursor protein-binding family A member 1; type: protein assay; remark: listed apart in the source
[5] = Vero E6 cell cytotoxicity, dose response, cytotoxicity control for non-replicating M. tuberculosis project, secondary assay (AID 492998); type: functional, VeroE6; conditions: Vero C1008
cells = type: functional
[6] = THP-1 cell cytotoxicity, dose response, cytotoxicity control for non-replicating M. tuberculosis project (AID 489025); type: functional
[7] = biological target: T2, Corticotropin-releasing factor receptor 2/Corticotropin-releasing factor-binding protein (Homo sapiens, UniProt P24387+Q13324); assay: activators of CRF receptor 2 with binding protein – uHTS hits, confirmation (AID 602473); type: functional; conditions: read-out: EC50_Mean
T2 sequence (Q13324 whole entry): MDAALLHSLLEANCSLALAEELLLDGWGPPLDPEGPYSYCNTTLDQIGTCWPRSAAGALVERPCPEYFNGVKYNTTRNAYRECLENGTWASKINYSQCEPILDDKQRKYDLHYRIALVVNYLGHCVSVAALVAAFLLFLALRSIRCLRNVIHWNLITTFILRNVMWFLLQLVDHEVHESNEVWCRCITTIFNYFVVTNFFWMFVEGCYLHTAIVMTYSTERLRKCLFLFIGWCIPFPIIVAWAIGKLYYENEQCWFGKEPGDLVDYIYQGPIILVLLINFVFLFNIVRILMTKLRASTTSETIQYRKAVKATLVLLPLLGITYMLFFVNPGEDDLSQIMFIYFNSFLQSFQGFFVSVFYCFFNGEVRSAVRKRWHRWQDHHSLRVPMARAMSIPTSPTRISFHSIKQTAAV
T2 sequence (P24387 whole entry): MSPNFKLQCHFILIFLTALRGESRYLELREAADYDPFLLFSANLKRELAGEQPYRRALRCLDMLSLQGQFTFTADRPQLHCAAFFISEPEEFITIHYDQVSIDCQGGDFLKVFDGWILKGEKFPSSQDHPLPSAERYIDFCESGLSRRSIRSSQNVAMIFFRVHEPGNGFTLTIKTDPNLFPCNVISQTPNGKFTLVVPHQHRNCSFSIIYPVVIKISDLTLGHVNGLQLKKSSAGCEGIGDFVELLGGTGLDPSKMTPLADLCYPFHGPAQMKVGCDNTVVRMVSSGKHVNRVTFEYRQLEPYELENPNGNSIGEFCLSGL

[8] = HepG2 cell cytotoxicity, dose response, cytotoxicity control for non-replicating M. tuberculosis project (AID 489018); type: functional; conditions: Mycobacterium tuberculosis
[9] = biological target: Intestinal-type alkaline phosphatase (Homo sapiens, UniProt P09923); assay: inhibition of human intestinal alkaline phosphatase – biochemical, dose response (AID 488876); type: functional
Chain of Intestinal-type alkaline phosphatase (Homo sapiens, UniProt P09923) (P09923 whole entry): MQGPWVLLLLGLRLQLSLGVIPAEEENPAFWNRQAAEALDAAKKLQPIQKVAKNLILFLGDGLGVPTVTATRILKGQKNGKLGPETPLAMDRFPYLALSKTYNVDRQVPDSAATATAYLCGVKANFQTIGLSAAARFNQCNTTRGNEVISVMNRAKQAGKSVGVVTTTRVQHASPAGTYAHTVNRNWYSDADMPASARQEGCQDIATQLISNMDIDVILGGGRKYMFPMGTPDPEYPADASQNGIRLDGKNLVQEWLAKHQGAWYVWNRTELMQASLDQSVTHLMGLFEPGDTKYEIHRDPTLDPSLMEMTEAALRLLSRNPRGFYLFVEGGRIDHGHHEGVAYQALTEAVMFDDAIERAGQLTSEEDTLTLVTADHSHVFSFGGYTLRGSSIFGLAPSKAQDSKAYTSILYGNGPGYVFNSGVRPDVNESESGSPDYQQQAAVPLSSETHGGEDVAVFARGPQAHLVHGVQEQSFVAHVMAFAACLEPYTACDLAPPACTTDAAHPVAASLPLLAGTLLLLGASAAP

[10] = biological target: T3, Alkaline phosphatase, tissue-nonspecific isozyme (Homo sapiens, UniProt P05186); assay: TNAP enzyme inhibition by screening hits, dose response, selectivity assay for mouse IAP inhibitor project, biochemical, human TNAP, uHTS hits (AID 488906); type: functional
T3 sequence (P05186 whole entry): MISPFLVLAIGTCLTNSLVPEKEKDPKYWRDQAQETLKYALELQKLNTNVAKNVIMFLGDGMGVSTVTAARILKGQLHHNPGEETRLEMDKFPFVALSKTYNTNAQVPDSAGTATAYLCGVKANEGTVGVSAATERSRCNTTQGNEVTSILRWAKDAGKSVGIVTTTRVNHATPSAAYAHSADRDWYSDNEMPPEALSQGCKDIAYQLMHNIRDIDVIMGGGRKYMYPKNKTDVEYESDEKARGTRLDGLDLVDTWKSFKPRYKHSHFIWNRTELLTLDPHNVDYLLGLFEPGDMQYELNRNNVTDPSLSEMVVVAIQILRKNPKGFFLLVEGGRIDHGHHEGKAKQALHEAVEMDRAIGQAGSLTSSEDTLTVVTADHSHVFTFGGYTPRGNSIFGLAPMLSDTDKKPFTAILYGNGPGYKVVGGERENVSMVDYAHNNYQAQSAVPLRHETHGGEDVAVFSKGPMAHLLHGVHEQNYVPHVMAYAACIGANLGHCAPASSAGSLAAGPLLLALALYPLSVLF

[11] = biological target: Intestinal-type alkaline phosphatase (Mus musculus, UniProt P24822); assay: PubChem AID 488785; type: functional
Chain of Intestinal-type alkaline phosphatase (Mus musculus, UniProt P24822) (P24822 whole entry, the tested form may be a part): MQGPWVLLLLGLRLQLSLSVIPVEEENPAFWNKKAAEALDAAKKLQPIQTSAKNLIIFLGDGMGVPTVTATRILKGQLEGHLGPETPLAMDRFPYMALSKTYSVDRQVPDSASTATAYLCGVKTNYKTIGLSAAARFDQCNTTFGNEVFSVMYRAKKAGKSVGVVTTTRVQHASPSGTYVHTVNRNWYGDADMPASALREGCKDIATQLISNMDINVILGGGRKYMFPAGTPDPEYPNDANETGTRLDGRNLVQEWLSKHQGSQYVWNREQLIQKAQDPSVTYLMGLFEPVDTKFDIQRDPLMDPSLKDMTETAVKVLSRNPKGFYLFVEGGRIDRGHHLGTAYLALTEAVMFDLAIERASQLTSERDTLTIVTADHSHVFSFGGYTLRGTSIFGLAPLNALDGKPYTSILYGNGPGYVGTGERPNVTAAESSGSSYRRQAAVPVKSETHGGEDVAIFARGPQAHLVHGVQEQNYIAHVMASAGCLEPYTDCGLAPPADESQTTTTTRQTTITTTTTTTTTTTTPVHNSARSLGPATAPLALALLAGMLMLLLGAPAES

[12] = blockers of HIV-1 envelope-mediated cell-cell fusion – cherry-pick, dose response (AID 652057); type: functional, cell-based
[13] = viability loss in CEM21 cells – cell-based, CellTiter-Glo luminescence, cherry-picked, cytotoxicity control for viral fusion inhibitor project, dose response (AID 652042); type: functional;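 also: potency for signal decrease meaning cytotoxicity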
[14] = HIV-1 AD8 envelope cell-cell fusion blockers – cherry-pick, dose response (AID 652062); type: functional, cell-based;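 also: luciferase signal from cell-cell fusion driven by HIV-1 clade B AD8 Env; potency is for inhibitors of fusion seen as a drop in luminescence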
[15] = blockers of HIV-1 ZM109 envelope-driven cell-cell fusion – HeLa effector, CEM target cells, luciferase, cherry-pick, dose response (AID 652058); type: functional, cell-based;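 also: luciferase signal from HIV-1 Env mediated cell-cell fusion of effector and target cells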
[16] = off-target signal loss in HeLa-CEM21 co-culture – HeLa F-luc CTL cells, cherry-picked, counter-screen for HIV-1 Env fusion inhibitor project, dose response (AID 652040); type: functional, cell-based;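 also: potency for signal decrease marking cytotoxic or nonspecific inhibition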
[17] = non-specific 3'UTR reporter inhibition in Clone20-Shn3RL – cell-based, Renilla luciferase, cherry-picked, counter-screen for Shn3 inhibitor project, dose response (AID 624133); type: functional
[18] = loss of viability in HepG2 cells – cell-based, CellTiter-Glo, cherry-picked, cytotoxicity control for Shn3 inhibitor project, dose response (AID 624134); type: functional
[19] = reduction of Shn3 3'UTR-driven luciferase in osteoblasts – cell-based, Clone20 osteoblasts, firefly luciferase, cherry-picked, dose response (AID 624132); type: functional;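 also: firefly luciferase luminescence from reporter carrying the Shn3 3'UTR in osteoblasts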
[20] = microbe, parasite or virus in culture; type: functional; conditions: Mycobacterium tuberculosis
[21] = Luminescence Cell-Based Dose Retest to Confirm Inhibitors of Cancer Stem Cells. [Related pubchem assays (depositor defined):AID2717, AID2721]; type: functional; conditions: Homo sapiens
[22] = MIN6 cell viability loss – mouse insulinoma, cytotoxicity control, dose response (AID 2122); type: functional;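 also: confirmatory high-throughput counterscreen run to flag cytotoxic compounds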
[23] = decrease of insulin promoter-GFP reporter – imaging, high-content screening, mouse beta cells (AID 1628); type: functional; conditions: MIN6
INS1 = assay: INS-1E survival protection against cytokine death – cell-based, luminescence, retest, dose response (AID 449756); type: functional; conditions: Rattus norvegicus;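 also: cell death triggered by IL-1 beta plus TNF-alpha plus IFN-gamma mixture; protective hits raise ATP signal compared with cytokine alone wells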
[24] = biological target: DNA dC->dU-editing enzyme APOBEC-3A (Homo sapiens, UniProt P31941); assay: Dose Response confirmation of small molecule APOBEC3A DNA Deaminase Inhibitors via a fluorescence-based single-stranded DNA deaminase assay. [Related pubchem assays (depositor defined):AID493011, AID493024]; type: functional
Chain of DNA dC->dU-editing enzyme APOBEC-3A (P31941 whole entry): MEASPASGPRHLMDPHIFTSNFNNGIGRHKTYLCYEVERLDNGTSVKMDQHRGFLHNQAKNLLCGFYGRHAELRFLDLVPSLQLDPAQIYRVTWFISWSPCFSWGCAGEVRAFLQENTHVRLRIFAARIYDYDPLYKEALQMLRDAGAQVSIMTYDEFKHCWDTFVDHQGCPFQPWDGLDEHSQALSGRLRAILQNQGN

[25] = biological target: DNA dC->dU-editing enzyme APOBEC-3G (Homo sapiens, UniProt Q9HC16); type: functional;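 also: Dose-response counterscreen measuring inhibition of APOBEC3G DNA deaminase activity, run while confirming APOBEC3A inhibitors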
Chain of DNA dC->dU-editing enzyme APOBEC-3G (Q9HC16 whole entry): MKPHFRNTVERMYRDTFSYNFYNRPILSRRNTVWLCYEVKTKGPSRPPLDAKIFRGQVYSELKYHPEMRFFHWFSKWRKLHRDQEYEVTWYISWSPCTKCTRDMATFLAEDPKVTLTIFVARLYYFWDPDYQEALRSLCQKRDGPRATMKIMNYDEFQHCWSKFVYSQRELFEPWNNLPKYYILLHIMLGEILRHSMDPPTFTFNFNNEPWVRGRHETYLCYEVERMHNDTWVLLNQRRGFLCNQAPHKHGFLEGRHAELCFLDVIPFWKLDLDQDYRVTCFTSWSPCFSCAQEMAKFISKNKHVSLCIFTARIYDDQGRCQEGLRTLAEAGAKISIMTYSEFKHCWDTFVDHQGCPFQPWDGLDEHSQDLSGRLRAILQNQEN

[26] = Trypanosoma cruzi growth suppression in host cells – NIH3T3 host cells, beta-gal luminescence, confirmation (AID 2044); type: functional, cell-based;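 also: intracellular parasites grown in NIH/3T3 mouse fibroblasts as host cells; luminescent beta-galactosidase reporter signal from transgenic T. cruzi replicating inside host cells; inhibitors lower the luminescence signal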
[27] = NIH3T3 cell viability loss – ATP luminescence, mouse fibroblasts, counter-screen, dose response (AID 2010); type: functional, cell-based;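 also: cells exposed to compound for about 90 hours before reading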
[28] = biological target: T4, Endoribonuclease toxin MazF (Escherichia coli K-12, UniProt P0AE70); assay: activation of MazEF endoribonuclease cleavage – biochemical, fluorescence, single-stranded RNA substrate, uHTS hits, dose response (AID 588481); type: functional
T4 sequence (P0AE70 whole entry): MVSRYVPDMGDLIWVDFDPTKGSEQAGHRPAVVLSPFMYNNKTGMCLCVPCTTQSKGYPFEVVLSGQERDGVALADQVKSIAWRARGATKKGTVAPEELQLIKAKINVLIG

[29] = biological target: T4, Endoribonuclease toxin MazF; assay: substrate-only fluorescence increase artefacts – biochemical, single-stranded RNase substrate, counter-screen for MazEF activator project, dose response (AID 588502); type: functional
[30] = biological target: T5, RNA-binding protein pos-1 (Caenorhabditis elegans, UniProt G5EF15); assay: disruptors of C. elegans POS-1 RNA interaction – biochemical, fluorescence polarization, dose response (AID 1964);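 also: purified POS-1 fused to maltose binding protein made in E. coli; potency of compounds blocking POS-1 binding to fluorescent RNA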
T5 sequence (G5EF15 whole entry): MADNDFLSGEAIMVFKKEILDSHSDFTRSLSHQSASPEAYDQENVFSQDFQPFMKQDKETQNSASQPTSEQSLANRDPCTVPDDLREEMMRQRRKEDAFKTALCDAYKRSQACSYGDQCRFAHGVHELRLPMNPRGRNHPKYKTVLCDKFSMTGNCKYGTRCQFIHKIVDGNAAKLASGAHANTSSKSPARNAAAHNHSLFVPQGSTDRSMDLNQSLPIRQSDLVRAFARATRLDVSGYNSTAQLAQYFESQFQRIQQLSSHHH

[31] = biological target: T6, Zinc finger protein mex-5 (Caenorhabditis elegans, UniProt Q9XUB2); assay: potency of MEX-5 RNA-binding blockers – biochemical, C. elegans, fluorescence polarization, dose response (AID 1960)
T6 sequence (Q9XUB2 whole entry): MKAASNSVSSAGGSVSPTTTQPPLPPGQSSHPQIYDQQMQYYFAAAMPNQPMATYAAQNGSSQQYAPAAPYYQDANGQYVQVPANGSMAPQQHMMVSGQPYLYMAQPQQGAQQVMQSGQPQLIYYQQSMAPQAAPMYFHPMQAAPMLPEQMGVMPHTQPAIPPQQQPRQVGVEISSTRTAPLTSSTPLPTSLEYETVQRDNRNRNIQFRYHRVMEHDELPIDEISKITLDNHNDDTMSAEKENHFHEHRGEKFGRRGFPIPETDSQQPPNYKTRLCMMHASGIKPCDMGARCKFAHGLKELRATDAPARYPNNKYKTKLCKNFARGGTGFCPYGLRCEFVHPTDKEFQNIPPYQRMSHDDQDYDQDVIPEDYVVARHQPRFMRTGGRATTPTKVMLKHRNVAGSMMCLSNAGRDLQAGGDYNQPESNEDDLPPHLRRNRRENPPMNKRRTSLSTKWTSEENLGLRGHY

T1 sequence (Q00975 whole entry): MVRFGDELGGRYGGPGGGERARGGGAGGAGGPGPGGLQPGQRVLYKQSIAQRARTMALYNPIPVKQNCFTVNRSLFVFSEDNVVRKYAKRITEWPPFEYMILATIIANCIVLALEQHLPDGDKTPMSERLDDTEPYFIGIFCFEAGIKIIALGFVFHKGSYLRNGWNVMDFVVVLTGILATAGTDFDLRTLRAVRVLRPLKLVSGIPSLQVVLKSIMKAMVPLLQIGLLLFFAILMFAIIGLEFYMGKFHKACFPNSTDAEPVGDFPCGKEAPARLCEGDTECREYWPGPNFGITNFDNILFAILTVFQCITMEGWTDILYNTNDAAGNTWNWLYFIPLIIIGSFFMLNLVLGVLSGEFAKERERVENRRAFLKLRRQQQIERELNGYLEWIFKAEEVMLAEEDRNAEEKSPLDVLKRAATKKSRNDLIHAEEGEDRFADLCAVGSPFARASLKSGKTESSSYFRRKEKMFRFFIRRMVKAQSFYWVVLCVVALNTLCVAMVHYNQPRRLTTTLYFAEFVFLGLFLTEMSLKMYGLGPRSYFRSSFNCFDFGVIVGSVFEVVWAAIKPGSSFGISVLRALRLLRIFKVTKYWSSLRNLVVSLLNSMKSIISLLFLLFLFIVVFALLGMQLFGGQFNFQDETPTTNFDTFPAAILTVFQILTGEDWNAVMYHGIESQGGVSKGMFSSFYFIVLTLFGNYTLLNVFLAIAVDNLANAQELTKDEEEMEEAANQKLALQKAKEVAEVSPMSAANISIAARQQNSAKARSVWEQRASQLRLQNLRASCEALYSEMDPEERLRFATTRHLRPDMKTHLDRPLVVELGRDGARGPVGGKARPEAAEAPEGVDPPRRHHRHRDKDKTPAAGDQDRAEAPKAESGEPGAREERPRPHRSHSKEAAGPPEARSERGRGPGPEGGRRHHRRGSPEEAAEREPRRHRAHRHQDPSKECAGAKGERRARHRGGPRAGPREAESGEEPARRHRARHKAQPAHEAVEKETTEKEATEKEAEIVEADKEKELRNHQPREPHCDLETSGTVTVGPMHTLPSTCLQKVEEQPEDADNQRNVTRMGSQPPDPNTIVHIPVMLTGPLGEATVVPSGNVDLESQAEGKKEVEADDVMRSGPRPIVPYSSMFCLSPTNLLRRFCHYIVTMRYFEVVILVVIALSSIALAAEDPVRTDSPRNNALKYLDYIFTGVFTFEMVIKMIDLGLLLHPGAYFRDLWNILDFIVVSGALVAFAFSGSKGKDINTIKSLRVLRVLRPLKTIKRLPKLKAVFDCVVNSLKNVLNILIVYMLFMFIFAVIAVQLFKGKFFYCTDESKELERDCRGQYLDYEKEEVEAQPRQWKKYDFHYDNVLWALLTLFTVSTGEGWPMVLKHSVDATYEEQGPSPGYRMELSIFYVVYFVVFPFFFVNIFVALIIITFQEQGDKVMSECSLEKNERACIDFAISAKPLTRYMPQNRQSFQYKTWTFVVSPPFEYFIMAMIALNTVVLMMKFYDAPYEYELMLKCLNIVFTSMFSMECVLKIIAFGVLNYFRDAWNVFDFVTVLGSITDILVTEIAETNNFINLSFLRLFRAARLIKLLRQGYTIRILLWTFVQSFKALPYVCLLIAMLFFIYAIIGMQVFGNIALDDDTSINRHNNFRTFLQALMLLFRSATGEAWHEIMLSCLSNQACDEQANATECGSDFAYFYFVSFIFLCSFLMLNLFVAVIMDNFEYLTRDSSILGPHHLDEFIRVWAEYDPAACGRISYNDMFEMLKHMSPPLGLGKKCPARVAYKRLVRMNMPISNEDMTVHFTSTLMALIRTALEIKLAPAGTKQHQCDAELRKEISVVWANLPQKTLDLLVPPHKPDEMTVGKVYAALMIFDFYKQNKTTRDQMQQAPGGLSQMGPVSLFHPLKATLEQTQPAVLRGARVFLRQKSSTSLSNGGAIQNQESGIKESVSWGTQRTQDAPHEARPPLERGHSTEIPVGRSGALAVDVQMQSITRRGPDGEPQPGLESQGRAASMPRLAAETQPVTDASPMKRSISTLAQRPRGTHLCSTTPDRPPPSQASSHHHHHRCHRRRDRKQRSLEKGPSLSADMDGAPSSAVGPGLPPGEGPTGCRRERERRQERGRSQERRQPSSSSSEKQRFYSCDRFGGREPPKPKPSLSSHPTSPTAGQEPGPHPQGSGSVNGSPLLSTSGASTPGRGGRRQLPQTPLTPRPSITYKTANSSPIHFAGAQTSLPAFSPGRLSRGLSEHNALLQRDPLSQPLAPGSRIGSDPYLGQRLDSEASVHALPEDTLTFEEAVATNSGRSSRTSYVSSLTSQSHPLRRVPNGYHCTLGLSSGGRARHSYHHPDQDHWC
T1 sequence (Q02410 whole entry): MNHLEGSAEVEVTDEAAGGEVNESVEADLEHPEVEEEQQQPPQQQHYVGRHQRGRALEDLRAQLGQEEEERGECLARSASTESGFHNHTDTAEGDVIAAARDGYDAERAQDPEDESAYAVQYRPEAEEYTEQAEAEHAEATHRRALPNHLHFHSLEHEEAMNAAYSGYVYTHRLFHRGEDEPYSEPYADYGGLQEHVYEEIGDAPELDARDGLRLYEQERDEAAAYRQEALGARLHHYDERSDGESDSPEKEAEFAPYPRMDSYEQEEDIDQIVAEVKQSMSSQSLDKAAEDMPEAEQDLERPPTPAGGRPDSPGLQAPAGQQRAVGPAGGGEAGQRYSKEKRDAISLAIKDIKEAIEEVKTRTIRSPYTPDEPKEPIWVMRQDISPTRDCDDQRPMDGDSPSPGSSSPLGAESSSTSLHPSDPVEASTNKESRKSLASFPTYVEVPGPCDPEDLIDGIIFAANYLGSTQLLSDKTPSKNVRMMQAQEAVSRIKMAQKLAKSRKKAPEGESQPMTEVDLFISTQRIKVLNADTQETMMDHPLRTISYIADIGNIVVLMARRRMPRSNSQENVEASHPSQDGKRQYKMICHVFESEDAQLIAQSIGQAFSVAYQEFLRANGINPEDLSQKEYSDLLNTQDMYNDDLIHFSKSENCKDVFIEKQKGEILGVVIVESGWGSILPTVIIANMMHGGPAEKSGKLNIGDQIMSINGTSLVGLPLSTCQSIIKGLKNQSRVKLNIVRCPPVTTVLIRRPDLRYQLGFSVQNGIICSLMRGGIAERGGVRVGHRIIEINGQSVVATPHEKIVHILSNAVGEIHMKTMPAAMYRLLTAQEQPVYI

## CCCCC1(CC(=O)OCC)C(=O)N(c2ccccc2)N(c2ccccc2)C1=O
HEK293 [1]
  EC50: > 59.6 µM (inactive)
HEK293 [2]
  EC50: > 59.6 µM (inactive)

## NC(=O)c1ccc2c(O)c(O)c(-c3cc(Cl)c(N)c(Cl)c3)nc2c1
[3]
  IC50: 14.1 µM (active)
[4]
  IC50: 28.9 µM (active)

## CCCN(CCC)S(=O)(=O)c1ccc(C(=O)Nc2nnc(-c3cccc(OC)c3)o2)cc1
[5]
  CC50: 3.51 µM (active)
cells
  IC50: 15.1 µM (active)
[6]
  CC50: 1.49 µM (active)
[7]
  EC50: 5.45 µM (active)
[8]
  CC50: 12.4 µM (active)

## CCCCCOc1ccc(C(=O)CCC(=O)NNC(=O)c2ccncc2)cc1
[9]
  IC50: 25.6 µM (active)
[10]
  IC50: > 100 µM (inactive)
[11]
  IC50: 14.7 µM (active)

## NC(CCc1ccccc1)c1csc(NC(=O)Nc2ccccc2Oc2ccccc2)n1 (centres undefined)
[12]
  AC50: 0.824 µM (active)
[13]
  AC50: 11.4 µM (active)
HEK293 [1]
  EC50: > 59.6 µM (inactive)
[14]
  AC50: 4.98 µM (active)
HEK293 [2]
  EC50: > 59.6 µM (inactive)
[15]
  AC50: 3.38 µM (active)
[16]
  AC50: 1.65 µM (active)
[17]
  AC50: 13.6 µM (active)
[18]
  AC50: 13.5 µM (active)
[19]
  AC50: 7.18 µM (active)

## COc1cc(CNCCc2ccccc2)cc(Cl)c1OCc1ccccc1
[5]
  CC50: 17.4 µM (active)
cells
  IC50: 13.9 µM (active)
[6]
  CC50: 13.7 µM (active)
[8]
  CC50: 15.5 µM (active)
[20]
  CC50: 22.9 µM (active)
[21]
  AC50: 5.32 µM (active)

## CCCCCCCC[n+]1c(C)n(-c2ccccc2)c2ccc(NC(C)=O)cc21
[22]
  IC50: < 0.25 µM (active)
[23]
  IC50: < 0.25 µM (active)
INS1
  AC50: 2.41 µM (active)
[24]
  IC50: 1.44 µM (active)
[25]
  IC50: 2.66 µM (active)
[26]
  EC50: 0.768 µM (active)
[27]
  EC50: > 60 µM (not active)

## NS(=O)(=O)c1cc(C(=O)N=Nc2c(O)[nH]c3ccccc23)ccc1Cl
[9]
  IC50: > 100 µM (inactive)
[10]
  IC50: > 100 µM (inactive)
[11]
  IC50: 42.4 µM (active)

## CCOC(=O)Cn1c2ccc(OC)cc2c2nc3ccccc3nc21
[28]
  EC50: > 99 µM (inactive)
[3]
  IC50: 4.34 µM (active)
[29]
  EC50: 50.7 µM (inactive)
[30]
  EC50: 0.862 µM (inconclusive)
[4]
  IC50: > 50 µM (inactive)
[31]
  EC50: 2.26 µM (active)
